From patent publication US7598377B2, “Inhibition of phosphoinositide 3-kinase β” (AstraZeneca AB, priority 2002, dated 2009)

Experiments:
[1] = molecular target: T1, p110β-PI3K (Homo sapiens, UniProt P42338); test: In vitro enzyme assay, p110β immunoprecipitated from platelet lysate (Biological Example 1); format: biochemical; details: Table I; for IC50: read-out: inhibitory concentration, beta
T1 construct: The α and β isoforms of the PI3K were immunoprecipitated from a platelet lysate; from tissue; host or cells: washed platelets (lysate, immunoprecipitated with anti-p110β antibody)
T1 sequence (P42338 whole entry, canonical isoform): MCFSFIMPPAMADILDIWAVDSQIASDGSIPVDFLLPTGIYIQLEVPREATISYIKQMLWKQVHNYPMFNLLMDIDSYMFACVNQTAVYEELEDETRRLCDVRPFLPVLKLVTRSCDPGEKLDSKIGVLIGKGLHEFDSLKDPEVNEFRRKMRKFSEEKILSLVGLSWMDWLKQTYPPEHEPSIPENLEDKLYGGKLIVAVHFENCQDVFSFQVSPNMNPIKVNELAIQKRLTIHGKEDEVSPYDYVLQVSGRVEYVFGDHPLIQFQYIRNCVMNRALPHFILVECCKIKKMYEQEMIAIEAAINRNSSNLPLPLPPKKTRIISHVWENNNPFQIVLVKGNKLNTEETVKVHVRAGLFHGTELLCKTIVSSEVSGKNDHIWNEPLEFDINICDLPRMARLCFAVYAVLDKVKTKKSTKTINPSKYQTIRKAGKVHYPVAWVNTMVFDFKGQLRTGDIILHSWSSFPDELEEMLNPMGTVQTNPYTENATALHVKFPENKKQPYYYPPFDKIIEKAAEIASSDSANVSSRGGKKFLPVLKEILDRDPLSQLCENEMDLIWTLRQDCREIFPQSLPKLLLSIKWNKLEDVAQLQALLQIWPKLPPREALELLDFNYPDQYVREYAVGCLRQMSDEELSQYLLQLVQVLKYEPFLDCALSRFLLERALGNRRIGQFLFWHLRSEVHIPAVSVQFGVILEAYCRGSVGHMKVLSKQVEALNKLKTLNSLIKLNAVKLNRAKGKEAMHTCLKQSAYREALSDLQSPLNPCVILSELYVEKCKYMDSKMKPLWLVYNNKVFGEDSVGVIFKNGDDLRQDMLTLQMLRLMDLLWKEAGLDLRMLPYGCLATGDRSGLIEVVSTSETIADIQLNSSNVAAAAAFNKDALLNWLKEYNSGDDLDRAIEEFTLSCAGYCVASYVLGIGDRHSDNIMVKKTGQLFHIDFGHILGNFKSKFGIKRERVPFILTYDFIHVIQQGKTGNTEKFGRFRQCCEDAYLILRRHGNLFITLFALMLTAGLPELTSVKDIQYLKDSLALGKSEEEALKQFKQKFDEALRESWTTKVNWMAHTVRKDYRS
T1 sequence (P27986 whole entry partner, canonical isoform): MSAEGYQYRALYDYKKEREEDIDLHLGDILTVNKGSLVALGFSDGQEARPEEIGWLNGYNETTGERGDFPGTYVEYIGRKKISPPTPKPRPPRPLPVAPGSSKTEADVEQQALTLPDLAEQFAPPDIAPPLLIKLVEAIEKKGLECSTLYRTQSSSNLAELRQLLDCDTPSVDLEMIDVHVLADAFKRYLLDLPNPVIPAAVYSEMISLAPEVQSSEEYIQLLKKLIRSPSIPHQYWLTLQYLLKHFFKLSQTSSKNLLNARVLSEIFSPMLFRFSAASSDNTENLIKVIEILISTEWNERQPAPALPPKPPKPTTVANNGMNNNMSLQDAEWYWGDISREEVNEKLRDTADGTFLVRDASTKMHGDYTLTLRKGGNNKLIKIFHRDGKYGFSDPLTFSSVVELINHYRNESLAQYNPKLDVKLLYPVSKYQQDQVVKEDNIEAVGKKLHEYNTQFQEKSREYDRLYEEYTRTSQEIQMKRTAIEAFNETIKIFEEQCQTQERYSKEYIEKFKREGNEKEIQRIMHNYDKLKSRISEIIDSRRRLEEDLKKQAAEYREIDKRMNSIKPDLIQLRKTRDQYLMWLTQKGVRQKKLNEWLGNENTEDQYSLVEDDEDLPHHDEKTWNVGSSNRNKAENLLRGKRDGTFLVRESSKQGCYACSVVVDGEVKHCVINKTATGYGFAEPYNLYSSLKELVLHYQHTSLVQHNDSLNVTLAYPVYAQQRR
Experimental: For each immunoprecipitation, 1 mg of lysate was incubated with an anti-p110α (1 μg), anti-p110β (1 μg), anti-p110δ (1 μg) or anti-PI4 kinase antibody (2-5 μg) and 50 μl of a 50% slurry of protein A beads overnight at 4° C. […] For PI4 kinase assays, protein A beads-immune complexes were also washed twice with lysis buffer, prior to two washes with 1× PI4 kinase assay buffer (20 mM Hepes, pH 7.5, 10 mM MgCl2, 0.3% Triton X-100) and the addition of other assay constituents, as described above. All reactions were terminated by the addition of 100 μl 1 M HCl, 200 μl choloroform/methanol (1:1) and 500 μl 2 M KCl and lipids extracted by centrifugation at 15,000×g for 2 minutes. […] The lipid spots were then removed from the TLC plate and the level of radioactivity quantified to accurately determine the level of PtdIns(3)P/PtdIns(4)P production.

[2] = molecular target: T2, p110δ-PI3K (Homo sapiens, UniProt O00329); test: In vitro enzyme assay, p110δ immunoprecipitated from platelet lysate (Biological Example 1); format: biochemical; details: Table I; read-out: inhibitory concentration, delta
T2 construct: from tissue; host or cells: washed platelets (lysate, immunoprecipitated with anti-p110δ antibody)
T2 sequence (O00329 whole entry): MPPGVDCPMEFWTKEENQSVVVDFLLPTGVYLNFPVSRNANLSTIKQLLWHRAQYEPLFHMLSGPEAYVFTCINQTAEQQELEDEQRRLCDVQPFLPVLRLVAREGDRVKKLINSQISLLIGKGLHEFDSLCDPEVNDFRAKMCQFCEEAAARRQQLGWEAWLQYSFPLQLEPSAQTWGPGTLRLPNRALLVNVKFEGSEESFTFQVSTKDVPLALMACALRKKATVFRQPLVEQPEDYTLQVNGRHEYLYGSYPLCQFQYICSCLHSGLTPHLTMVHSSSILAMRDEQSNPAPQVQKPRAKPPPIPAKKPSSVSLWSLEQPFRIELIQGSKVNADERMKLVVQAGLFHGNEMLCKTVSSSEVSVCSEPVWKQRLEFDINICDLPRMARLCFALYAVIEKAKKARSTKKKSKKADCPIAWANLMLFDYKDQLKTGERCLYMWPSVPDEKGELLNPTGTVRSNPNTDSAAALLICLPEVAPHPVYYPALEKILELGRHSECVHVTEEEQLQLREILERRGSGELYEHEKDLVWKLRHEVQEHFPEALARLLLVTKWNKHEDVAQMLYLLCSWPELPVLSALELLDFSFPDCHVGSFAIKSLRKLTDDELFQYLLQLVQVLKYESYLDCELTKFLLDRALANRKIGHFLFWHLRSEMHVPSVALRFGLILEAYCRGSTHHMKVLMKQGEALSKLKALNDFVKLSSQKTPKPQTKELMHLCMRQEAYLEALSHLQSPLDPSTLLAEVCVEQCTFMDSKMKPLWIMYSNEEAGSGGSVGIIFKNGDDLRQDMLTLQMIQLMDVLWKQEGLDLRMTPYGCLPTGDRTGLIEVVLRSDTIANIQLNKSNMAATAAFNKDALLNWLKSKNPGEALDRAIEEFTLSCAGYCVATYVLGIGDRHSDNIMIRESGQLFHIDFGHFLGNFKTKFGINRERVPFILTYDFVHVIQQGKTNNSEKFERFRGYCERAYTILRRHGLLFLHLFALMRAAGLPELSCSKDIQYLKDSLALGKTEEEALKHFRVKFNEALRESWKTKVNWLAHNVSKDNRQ
T2 sequence (P27986 whole entry partner): as the sequence (P27986 whole entry partner, canonical isoform) above
Experimental: (§1) For each immunoprecipitation, 1 mg of lysate was incubated with an anti-p110α (1 μg), anti-p110β (1 μg), anti-p110δ (1 μg) or anti-PI4 kinase antibody (2-5 μg) and 50 μl of a 50% slurry of protein A beads overnight at 4° C. […] For PI4 kinase assays, protein A beads-immune complexes were also washed twice with lysis buffer, prior to two washes with 1× PI4 kinase assay buffer (20 mM Hepes, pH 7.5, 10 mM MgCl2, 0.3% Triton X-100) and the addition of other assay constituents, as described above. All reactions were terminated by the addition of 100 μl 1 M HCl, 200 μl choloroform/methanol (1:1) and 500 μl 2 M KCl and lipids extracted by centrifugation at 15,000×g for 2 minutes. The production of PI3 or PI4 kinase lipid products, PtdIns(3)P and PtdIns(4)P, were confirmed through TLC analysis. The lipid spots were then removed from the TLC plate and the level of radioactivity quantified to accurately determine the level of PtdIns(3)P/PtdIns(4)P production.

[3] = molecular target: T3, p110α-PI3K (Homo sapiens, UniProt P42336); test: In vitro enzyme assay, p110α immunoprecipitated from platelet lysate (Biological Example 1); format: biochemical; details: Table I; read-out: inhibitory concentration, alpha
T3 construct: The α and β isoforms of the PI3K were immunoprecipitated from a platelet lysate; from tissue; host or cells: washed platelets (lysate, immunoprecipitated with anti-p110α antibody)
T3 sequence (P42336 whole entry, canonical isoform): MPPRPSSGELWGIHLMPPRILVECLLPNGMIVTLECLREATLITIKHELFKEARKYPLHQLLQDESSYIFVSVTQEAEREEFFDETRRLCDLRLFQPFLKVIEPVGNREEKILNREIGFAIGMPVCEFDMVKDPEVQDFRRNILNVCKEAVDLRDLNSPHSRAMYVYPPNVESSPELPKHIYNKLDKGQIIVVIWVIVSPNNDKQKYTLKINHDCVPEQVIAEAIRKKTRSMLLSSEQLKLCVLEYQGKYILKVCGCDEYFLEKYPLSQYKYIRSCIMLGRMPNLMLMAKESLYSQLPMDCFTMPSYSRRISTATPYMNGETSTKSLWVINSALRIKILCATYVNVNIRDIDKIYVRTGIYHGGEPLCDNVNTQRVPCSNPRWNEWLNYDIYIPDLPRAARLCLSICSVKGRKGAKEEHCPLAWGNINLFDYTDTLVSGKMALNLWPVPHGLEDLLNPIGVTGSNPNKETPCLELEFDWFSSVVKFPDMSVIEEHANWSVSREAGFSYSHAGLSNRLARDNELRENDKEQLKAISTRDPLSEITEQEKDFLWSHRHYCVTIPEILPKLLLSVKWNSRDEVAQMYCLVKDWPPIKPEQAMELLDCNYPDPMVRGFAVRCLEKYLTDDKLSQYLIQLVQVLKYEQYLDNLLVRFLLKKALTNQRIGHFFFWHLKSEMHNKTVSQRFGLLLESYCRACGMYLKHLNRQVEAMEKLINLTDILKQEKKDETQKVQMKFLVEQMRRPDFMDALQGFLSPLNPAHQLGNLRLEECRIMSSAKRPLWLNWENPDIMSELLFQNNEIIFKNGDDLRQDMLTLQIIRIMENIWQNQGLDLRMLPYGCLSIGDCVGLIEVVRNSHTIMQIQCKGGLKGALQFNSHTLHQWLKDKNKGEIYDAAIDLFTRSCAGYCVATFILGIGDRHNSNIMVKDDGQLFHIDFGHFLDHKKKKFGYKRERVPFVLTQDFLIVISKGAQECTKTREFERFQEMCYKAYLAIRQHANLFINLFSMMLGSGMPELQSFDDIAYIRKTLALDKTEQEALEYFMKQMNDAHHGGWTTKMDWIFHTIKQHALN
T3 sequence (P27986 whole entry partner, canonical isoform): as the sequence (P27986 whole entry partner, canonical isoform) above
Experimental: as §1

[4] = molecular target: p110γ-PI3K (Homo sapiens, UniProt P48736); test: In vitro enzyme assay, p110γ recombinant protein (Biological Example 1); format: biochemical; details: Table I; read-out: inhibitory concentration, gamma
Chain of p110γ-PI3K (P48736 whole entry, canonical isoform): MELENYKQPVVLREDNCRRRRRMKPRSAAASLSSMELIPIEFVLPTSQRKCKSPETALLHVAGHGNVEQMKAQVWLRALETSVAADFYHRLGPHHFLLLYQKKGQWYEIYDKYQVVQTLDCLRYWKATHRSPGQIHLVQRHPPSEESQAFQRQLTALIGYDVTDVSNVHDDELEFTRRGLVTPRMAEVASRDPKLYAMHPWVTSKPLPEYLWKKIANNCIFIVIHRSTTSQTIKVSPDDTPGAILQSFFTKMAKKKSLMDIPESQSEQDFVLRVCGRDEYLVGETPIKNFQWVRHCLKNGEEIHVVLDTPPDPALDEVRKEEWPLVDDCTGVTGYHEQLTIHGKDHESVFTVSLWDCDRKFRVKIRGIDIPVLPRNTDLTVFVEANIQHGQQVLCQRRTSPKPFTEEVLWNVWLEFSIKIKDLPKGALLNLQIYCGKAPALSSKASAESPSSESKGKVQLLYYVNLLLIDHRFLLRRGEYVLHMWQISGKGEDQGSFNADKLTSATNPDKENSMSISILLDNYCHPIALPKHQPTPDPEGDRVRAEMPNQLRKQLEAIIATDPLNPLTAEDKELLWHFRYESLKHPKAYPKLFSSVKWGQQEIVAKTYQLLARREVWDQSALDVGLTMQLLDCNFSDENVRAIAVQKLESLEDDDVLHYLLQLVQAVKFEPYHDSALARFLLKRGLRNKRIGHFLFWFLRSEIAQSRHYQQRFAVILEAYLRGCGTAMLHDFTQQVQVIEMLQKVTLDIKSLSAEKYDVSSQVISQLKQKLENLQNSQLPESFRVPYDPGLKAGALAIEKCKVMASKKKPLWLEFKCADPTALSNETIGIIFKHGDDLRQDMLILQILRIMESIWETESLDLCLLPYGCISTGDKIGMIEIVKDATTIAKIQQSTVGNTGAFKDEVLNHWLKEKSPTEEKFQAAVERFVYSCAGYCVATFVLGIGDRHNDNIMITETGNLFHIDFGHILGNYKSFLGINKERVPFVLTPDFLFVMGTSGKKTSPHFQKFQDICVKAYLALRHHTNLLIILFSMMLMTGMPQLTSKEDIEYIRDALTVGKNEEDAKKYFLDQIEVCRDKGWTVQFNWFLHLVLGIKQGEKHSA
Excerpt: Reactions were terminated and lipid products analysed as described above for the other PI 3-kinase isoforms assays.

[5] = test system: platelets on immobilized vWf; test: In vitro flow studies: platelet calcium flux and adhesion on immobilized vWf; format: cell-based; details: vWf matrix, shear rate gradient up to 10,000 s^−1 over 1 s
Experimental: The use of an in vitro-flow based adhesion assay enables us to simultaneously analyze platelet adhesion dynamics and activation (by monitoring cytosolic calcium flux) on immobilized von Willebrand factor (vWf). Briefly, isolated platelets are perfused through vWf (100 μg/ml) coated microcapillary tubes and analysis of cytosolic calcium flux conducted in real-time by confocal microscopy.
Washed platelets (1.5×10^9) suspended in PWB were incubated with the calcium indicator dyes, Oregon Green 488 BAPTA-1, AM (1 μM) and Fura Red, AM (1.25 μM), for 30 min at 37° C. Platelets were washed twice with PWB prior to being resuspended in Tyrode's buffer containing 1 mM calcium.
For static adhesion assays, platelets were allowed to settle on the surface of vWf-coated coverslips for 30 min at 37° C. For flow assays, platelets were either perfused over a vWf-coated microcapillary tube at a constant shear rate of 600, 1800 or 10,000 s^−1 or allowed to settle on the surface of a vWf-coated microcapillary tube prior to being accelerated through a shear gradient of 10,000 s^−1 over a 1 s interval. Real time platelet calcium flux in individual platelets was monitored at 1 s intervals over the 30 min incubation period or at 0.586 s intervals for up to 175 s for static and flow-based assays, respectively.

Row | SMILES | Ratio δ/β [1] | IC50 [1] [nM] | IC50 [2] [nM] | IC50 [3] [nM] | IC50 [4] [nM] | platelet responses to accelerated shear [5]
1 | Cc1cc(C(C)Nc2cccc(C(F)(F)F)c2)c2nc(N3CCOCC3)cc(=O)n2c1 (racemic) [TGX-264, (±)-7-methyl-2-morpholin-4-yl-9-[1-(3-trifluoromethylphenylamino)ethyl]-pyrido[1,2-a]pyrimidin-4-one] | 133.33 | 75 | 10000 | > 5000 | > 5000 | 
2 | Cc1cc(C(C)Nc2ccccn2)c2nc(N3CCOCC3)cc(=O)n2c1 (racemic) [TGX-295, (±)-7-methyl-2-morpholin-4-yl-9-[1-(2-pyridinylamino)ethyl]-pyrido[1,2-a]pyrimidin-4-one] | 40.00 | 50 | 2000 | > 5000 | > 5000 | 
3 | Cc1cc(CN(C)c2ccccc2)c2nc(N3CCOCC3)cc(=O)n2c1 (racemic) [TGX-195, (±)-7-methyl-9-{[methyl(phenyl)amino]methyl}-2-morpholin-4-yl-pyrido[1,2-a]pyrimidin-4-one] | 25.00 | 20 | 500 | > 5000 | > 5000 | 
4 | Cc1cc(C(C)Nc2ccc(Cl)cc2)c2nc(N3CCOCC3)cc(=O)n2c1 (racemic) [TGX-243, (±)-9-[1-(4-chlorophenylamino)ethyl]-7-methyl-2-morpholin-4-yl-pyrido[1,2-a]pyrimidin-4-one] | 40.00 | 50 | 2000 | > 5000 | > 5000 | 
5 | Cc1cc(C(C)Nc2ccc(Cl)c(Cl)c2)c2nc(N3CCOCC3)cc(=O)n2c1 (racemic) [TGX-244, (±)-9-[1-(3,4-dichlorophenylamino)ethyl]-7-methyl-2-morpholin-4-yl-pyrido[1,2-a]pyrimidin-4-one] | 20.00 | 50 | 1000 | > 5000 | > 5000 | 
6 | Cc1cc(C(C)Nc2cc(F)cc(F)c2)c2nc(N3CCOCC3)cc(=O)n2c1 (racemic) [TGX-239, (±)-9-[1-(3,5-difluorophenylamino)ethyl]-7-methyl-2-morpholin-4-yl-pyrido[1,2-a]pyrimidin-4-one] | 11.43 | 7 | 80 | > 5000 | > 5000 | 
7 | Cc1cccc(NC(C)c2cc(C)cn3c(=O)cc(N4CCOCC4)nc23)c1 (racemic) [TGX-262, (±)-7-methyl-9-[1-(3-methylphenylamino)ethyl]-2-morpholin-4-yl-pyrido[1,2-a]pyrimidin-4-one] | 20.00 | 50 | 1000 | > 5000 | > 5000 | 
8 | COC[C@H]1OC(=O)c2coc3c2[C@@]1(C)C1=C(C3=O)[C@@H]2CCC(=O)[C@@]2(C)C[C@H]1OC(C)=O [wortmannin, reference compound] |  |  |  |  |  | eliminates platelet responses to accelerated shear
9 | Cc1cc(C(C)Nc2cccc(Cl)c2)c2nc(N3CCOCC3)cc(=O)n2c1 (racemic) [TGX-248, (±)-9-[1-(3-chlorophenylamino)ethyl]-7-methyl-2-morpholin-4-yl-pyrido[1,2-a]pyrimidin-4-one] | 10.00 | 10 | 100 | > 5000 | > 5000 | 
